Results published in article PMC10709440, “High-throughput ligand profile characterization in novel cell lines expressing seven heterologous insect olfactory receptors for the detection of volatile plant biomarkers” (Scientific Reports, 2023).
Where two headings read alike, the source gives them in different places.

Experiments:
Drosophila OR49b = molecular target: T1, Drosophila OR49b (Drosophila melanogaster, UniProt Q9V6H2); assay: cell-based; details: for Average response / OR49b response (VUAA1-normalized) at 1 μM / OR49b response (VUAA1-normalized) at 10 μM / OR49b response (VUAA1-normalized) at 100 μM: OR49b cell line; for Average response: mean of biological replicates
T1 construct: expressed in transfected cells
T1 sequence (Q9V6H2 1-375): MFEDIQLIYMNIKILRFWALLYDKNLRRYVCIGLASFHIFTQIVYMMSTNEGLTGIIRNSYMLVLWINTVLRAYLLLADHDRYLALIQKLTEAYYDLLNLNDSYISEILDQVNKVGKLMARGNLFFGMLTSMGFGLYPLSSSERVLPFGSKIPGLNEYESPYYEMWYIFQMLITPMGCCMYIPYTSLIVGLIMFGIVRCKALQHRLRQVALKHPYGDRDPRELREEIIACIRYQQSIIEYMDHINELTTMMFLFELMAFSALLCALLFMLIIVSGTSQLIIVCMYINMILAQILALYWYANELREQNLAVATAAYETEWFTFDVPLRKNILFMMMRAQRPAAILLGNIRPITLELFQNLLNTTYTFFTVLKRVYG
T1 sequence (Q9VNB5 1-486 partner): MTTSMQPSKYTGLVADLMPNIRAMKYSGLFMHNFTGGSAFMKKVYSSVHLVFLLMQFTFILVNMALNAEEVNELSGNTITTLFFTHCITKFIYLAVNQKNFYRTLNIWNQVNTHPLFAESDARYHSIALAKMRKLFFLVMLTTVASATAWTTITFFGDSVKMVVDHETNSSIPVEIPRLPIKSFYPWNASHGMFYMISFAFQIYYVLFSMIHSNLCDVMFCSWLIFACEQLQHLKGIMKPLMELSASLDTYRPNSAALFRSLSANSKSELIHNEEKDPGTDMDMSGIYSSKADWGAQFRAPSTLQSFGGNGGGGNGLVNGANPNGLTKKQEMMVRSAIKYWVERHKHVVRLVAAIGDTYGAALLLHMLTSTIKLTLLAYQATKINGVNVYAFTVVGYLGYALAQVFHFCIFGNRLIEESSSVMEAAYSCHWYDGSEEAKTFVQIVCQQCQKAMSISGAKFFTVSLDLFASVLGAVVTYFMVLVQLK
In short: (§1)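 Responses are VUAA1-normalized ΔF: each VOC-evoked calcium signal, (FMAX−F0)/F0 over 30 s after injection, divided by the same line's mean 50 µM VUAA1 response. Cells were doxycycline-induced HEK293 with GCaMP6 and the cognate Drosophila OR, in HEPES buffer pH 7.3; ligands tested 0.01–100 μM.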

Drosophila OR98a = molecular target: T2, Drosophila OR98a (Drosophila melanogaster, UniProt Q9VAZ3); assay: Calcium ion fluorescence (GCaMP6) assay, OR98a stable HEK293 cell line; format: cell-based; details: for OR98a Average response (VUAA1-normalized): 50 μM VUAA1 = 1; for Average response / OR98a response (VUAA1-normalized) at 1 μM / OR98a response (VUAA1-normalized) at 10 μM / OR98a response (VUAA1-normalized) at 100 μM: OR98a cell line; for Average response: average of biological replicates, fraction of VUAA1 response; for OR98a response (VUAA1-normalized) at 1 μM: VOC concentration 1 μM; for OR98a response (VUAA1-normalized) at 10 μM: VOC concentration 10 μM; for OR98a response (VUAA1-normalized) at 100 μM: VOC concentration 100 μM
T2 construct: expressed in transfected cells
T2 sequence (Q9VAZ3 1-397): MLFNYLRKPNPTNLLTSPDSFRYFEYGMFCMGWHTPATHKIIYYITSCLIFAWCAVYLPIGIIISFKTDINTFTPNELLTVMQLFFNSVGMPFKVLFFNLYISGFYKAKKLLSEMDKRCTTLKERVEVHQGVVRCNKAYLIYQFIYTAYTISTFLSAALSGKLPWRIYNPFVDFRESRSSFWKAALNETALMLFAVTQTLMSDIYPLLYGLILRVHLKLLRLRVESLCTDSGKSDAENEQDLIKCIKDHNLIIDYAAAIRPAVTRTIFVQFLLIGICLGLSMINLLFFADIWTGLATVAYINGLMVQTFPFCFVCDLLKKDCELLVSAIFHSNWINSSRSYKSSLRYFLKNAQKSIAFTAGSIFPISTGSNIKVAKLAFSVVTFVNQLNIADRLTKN
T2 sequence (Q9VNB5 1-486 partner): T1 sequence (Q9VNB5 1-486 partner)
In short: as §1

[1] = ligand concentration 1 (unit not given), 0.05 threshold, values below shown as 0
[2] = ligand concentration 10 (unit not given), 0.05 threshold, values below shown as 0
[3] = ligand concentration 100 (unit not given), 0.05 threshold, values below shown as 0
[4] = HEK293, 1 μM VOC, 50 μM VUAA1 = 1, read-out: OR49b Average response (VUAA1-normalized)
[5] = HEK293, 10 μM VOC, 50 μM VUAA1 = 1, read-out: OR49b Average response (VUAA1-normalized)
[6] = HEK293, 100 μM VOC, 50 μM VUAA1 = 1, read-out: OR49b Average response (VUAA1-normalized)
[7] = HEK293, VOC concentration 1 μM, read-out: OR49b response (VUAA1-normalized response)
[8] = HEK293, VOC concentration 10 μM, read-out: OR49b response (VUAA1-normalized response)
[9] = HEK293, VOC concentration 100 μM, read-out: OR49b response (VUAA1-normalized response)
[10] = ligand concentration 1 (unit not given), threshold 0.05, below shown as 0
[11] = ligand concentration 10 (unit not given), threshold 0.05, below shown as 0
[12] = ligand concentration 100 (unit not given), threshold 0.05, below shown as 0
[13] = HEK293, read-out: Average response
[14] = HEK293, read-out: OR98a response (VUAA1-normalized response)
[15] = HEK293, read-out: OR49b Average response (VUAA1-normalized)
[16] = HEK293, read-out: OR49b response (VUAA1-normalized response)

SMILES | Average response (Drosophila OR49b; odorant cc. 1 µM) | Average response (Drosophila OR49b; odorant cc. 10 µM) | Average response (Drosophila OR49b; odorant cc. 100 µM) | activation at 1 µM (Drosophila OR49b; [7]) [%] | activation at 10 µM (Drosophila OR49b; [8]) [%] | activation at 100 µM (Drosophila OR49b; [9]) [%] | DF norm AVERAGE OR49b (Drosophila OR49b; [10]) | DF norm AVERAGE OR49b (Drosophila OR49b; [11]) | DF norm AVERAGE OR49b (Drosophila OR49b; [12]) | activation at 1 µM (Drosophila OR98a; [13]) [%] | activation at 10 µM (Drosophila OR98a; [13]) [%] | activation at 100 µM (Drosophila OR98a; [13]) [%] | activation at 1 µM (Drosophila OR98a; [14]) [%] | activation at 10 µM (Drosophila OR98a; [14]) [%] | activation at 100 µM (Drosophila OR98a; [14]) [%] | DF norm AVERAGE OR98a (Drosophila OR98a; [10]) | DF norm AVERAGE OR98a (Drosophila OR98a; [11]) | DF norm AVERAGE OR98a (Drosophila OR98a; [12]) | also measured
CC/C=C\CCO [Z3-hexenol] | 0.0226 | 0.00 | 0.00 | – | – | – | – | – | – | – | – | – | – | – | – | – | – | – | DF norm AVERAGE OR49b (Drosophila OR49b; [1]): 0; DF norm AVERAGE OR49b (Drosophila OR49b; [2]): 0; DF norm AVERAGE OR49b (Drosophila OR49b; [3]): 0; OR98a Average response (VUAA1-normalized) (Drosophila OR98a; 1 μM VOC): 0.00; OR98a Average response (VUAA1-normalized) (Drosophila OR98a; 10 μM VOC): 0.17; OR98a Average response (VUAA1-normalized) (Drosophila OR98a; 100 μM VOC): 0.11; Average response (Drosophila OR98a; cc. 1 µM): 0.00; Average response (Drosophila OR98a; cc. 10 µM): 0.17; Average response (Drosophila OR98a; cc. 100 µM): 0.11; DF norm AVERAGE OR98a (Drosophila OR98a; [1]): 0; DF norm AVERAGE OR98a (Drosophila OR98a; [2]): 0.167; DF norm AVERAGE OR98a (Drosophila OR98a; [3]): 0.1147
CC/C=C\CCO [Z-3-hexenol] | – | – | – | – | – | – | – | – | – | – | – | – | – | – | – | – | – | – | OR49b response (VUAA1-normalized) at 1 μM (Drosophila OR49b; VOC concentration 1 μM): 0.00; OR49b response (VUAA1-normalized) at 10 μM (Drosophila OR49b; VOC concentration 10 μM): 0.00; OR49b response (VUAA1-normalized) at 100 μM (Drosophila OR49b; VOC concentration 100 μM): 0.00; OR98a response (VUAA1-normalized) at 1 μM (Drosophila OR98a): 0.00; OR98a response (VUAA1-normalized) at 10 μM (Drosophila OR98a): 0.17; OR98a response (VUAA1-normalized) at 100 μM (Drosophila OR98a): 0.11
CC/C=C\CCOC(C)=O [Z-3-hexenyl acetate] | – | – | – | – | – | – | – | – | – | – | – | – | – | – | – | – | – | – | OR49b response (VUAA1-normalized) at 1 μM (Drosophila OR49b; VOC concentration 1 μM): 0.00; OR49b response (VUAA1-normalized) at 10 μM (Drosophila OR49b; VOC concentration 10 μM): 0.00; OR49b response (VUAA1-normalized) at 100 μM (Drosophila OR49b; VOC concentration 100 μM): 0.00; OR98a response (VUAA1-normalized) at 1 μM (Drosophila OR98a): 0.00; OR98a response (VUAA1-normalized) at 10 μM (Drosophila OR98a): 0.00; OR98a response (VUAA1-normalized) at 100 μM (Drosophila OR98a): 0.10
CC(=O)c1ccccc1 [acetophenone] | 0.00 | 0.00 | 0.13 | 0 | 0 | 13 | 0 | 0 | 0.1277 | 4 | 0 | 0 | 0 | 0 | 0 | 0 | 0 | 0 | activation at 1 µM (Drosophila OR49b; [4]): 0%; activation at 10 µM (Drosophila OR49b; [5]): 0%; activation at 100 µM (Drosophila OR49b; [6]): 13%
CC1=CCC2CC1C2(C)C (stereo not drawn) [alpha-pinene] | 0.0281 | 0.00 | 0.00 | 0 | 0 | 0 | 0 | 0 | 0 | 0 | 0 | 0 | 0 | 0 | 0 | 0 | 0 | 0 | –
CC1=CC[C@@H](C(C)(C)O)CC1 [alpha-terpineol] | 0.00 | 0.00 | 0.0245 | 0 | 0 | 0 | 0 | 0 | 0 | 0 | 1.81 | 6.45 | 0 | 0 | 6.45 | 0 | 0 | 0.06455 | –
O=Cc1ccccc1 [benzaldehyde] | 0.00 | 0.0283 | 0.23 | 0 | 0 | 23 | 0 | 0 | 0.2265 | 0 | 0 | 4.43 | 0 | 0 | 0 | 0 | 0 | 0 | activation at 1 µM (Drosophila OR49b; [4]): 0%; activation at 10 µM (Drosophila OR49b; [5]): 3%; activation at 100 µM (Drosophila OR49b; [6]): 23%
C=C1CCC2CC1C2(C)C (stereo not drawn) [beta-pinene] | 0.0658 | 0.05 | 0.00 | 6.58 | 5 | 0 | 0.06581 | 0.05055 | 0 | 19 | 17 | 1.89 | 19 | 17 | 0 | 0.1942 | 0.1655 | 0 | –
CCCCOC(C)=O [butyl acetate] | – | – | – | – | – | – | – | – | – | 3.31 | 0 | 4.29 | 0 | 0 | 0 | 0 | 0 | 0 | activation at 1 µM (Drosophila OR49b; [15]): 0%; activation at 10 µM (Drosophila OR49b; [15]): 0%; activation at 1 µM (Drosophila OR49b; [16]): 0%; activation at 10 µM (Drosophila OR49b; [16]): 0%; activation at 100 µM (Drosophila OR49b; [16]): 20%
CCCCCCCCCC=O [decanal] | 0.00 | 0.00 | 0.09 | 0 | 0 | 9 | 0 | 0 | 0.08966 | 3 | 0 | 0 | 0 | 0 | 0 | 0 | 0 | 0 | –
CC/C=C/CCO [e3-hexenol] | 0.00 | 0.00 | 0.08 | – | – | – | 0 | 0 | 0.07888 | – | – | – | – | – | – | 0 | 0 | 0 | Average response (Drosophila OR98a; cc. 1 µM): 0.00; Average response (Drosophila OR98a; cc. 10 µM): 0.00; Average response (Drosophila OR98a; cc. 100 µM): 0.00
